The subject of data set [1] is several mammalian cell types. The following applies: energy-independent manner; cited from earlier work.
Data set [2] deals with rats with permanent coronary artery occlusion. The data set is described as follows: Deaths during 6 weeks treatment. Type of data set: in vivo, rat. The following applies: 74 rats randomized to peptide or water. On the procedure: Rats were anesthetized, ventilated, and a thoracotomy performed in the left 4th intercostal space. Temperature was maintained at 36° C. by placing the rats on a heating pad during the procedure. The pericardium was excised and the proximal left coronary artery isolated and permanently occluded with a suture. Coronary artery occlusion was confirmed by cyanosis and akinesis of the anterior wall of the ventricle. The chest was closed, air evacuated, and the rats allowed to recover. Analgesia was administered per the veterinarian. An echocardiogram was obtained at approximately 15 minutes post coronary artery occlusion. At 2 hours rats were randomized to receive chronic daily D-Arg-2′,6′-Dmt-Lys-Phe-NH2 (delivered subcutaneously by an Alzet Osmotic Pump—3 mg/kg/day) or water. […] Heart rate and blood pressure were measured. A Millar catheter was inserted into the left ventricle and LV systolic pressure, LV end diastolic pressure, +dP/dt, and −dP/dt were measured. […] Postmortem left ventricle volume was measured by filling the LV cavity with fluid and measuring the total fluid. […] Quantitative histologic analysis included: total circumference, scar circumference, non-infarcted wall circumference, total LV area, total LV cavity area, LV wall thickness (at several points), non-infarcted wall thickness; myocardial infarct expansion index. […]

Non-standard residues stand in square brackets, D forms with d. Residues, ends and D or L forms follow the SMILES beside them. Dmt = Cc1cc(O)cc(C)c1C[C@H](N)C(=O)O

Regarding 2′,6′-Dmt-D-Arg-Phe-Lys-NH2, the “penetration of the plasma membrane” value in data set [1] is reported as “readily penetrates”.

As to `Cc1cc(O)cc(C)c1C[C@H](NC(=O)[C@H](N)CCCNC(=N)N)C(=O)N[C@@H](CCCCN)C(=O)N[C@@H](Cc1ccccc1)C(N)=O` [D-Arg-2′,6′-Dmt-Lys-Phe-NH2] (H-[dR][Dmt]KF-NH2), in data set [2], the “deaths during the 6 weeks treatment” value is recorded as “no rats died”.
